According to article PMC5378956, “Inhibition of delta-secretase improves cognitive functions in mouse models of Alzheimer's disease” (Nature Communications, 2017):
Where two headings read alike, the source gives them in different places.

How the values were obtained:
[1] = Caco-2 monolayer permeability screen; conditions: human, Caco-2
Procedure: (§1) Supplementary Table 3: Caco-2 permeability and BBB-PAMPA permeability
(§2) For CaCo-2 permeability assay, cells were incubated with 10 µM of these reagents in
(§3) buffers for 2 h, and the receiver side buffer is removed for analysis by LC/MS/MS. Efflux […]
(§4) LLOQ: Lower Limit of Quantification; Papp: apparent permeability.

[2] = Liver microsomal stability, mouse; conditions: mouse, microsomes, 0.5 h, pH 7.4
Procedure: (§5) Supplementary Table 4: Liver microsomal stability
(§6) Compound Species Mean Remaining Parent Mean Remaining Parent
(§7) (with NADPH) (NADPH-free)
(§8) The test agents were incubated in duplicate with microsomes at 37 °C for 30 min. The reaction contained microsomal protein in 100 mM potassium phosphate, 2 mM NADPH, 3 mM MgCl2, pH 7.4. A control was run for each test agent omitting NADPH to detect NADPH-free degradation. Data are reported as % remaining of parent compound. ND, Peak not detected due to bioanalysis issue (poor ionization).

[3] = Liver microsomal stability, human; conditions: human, microsomes, 0.5 h, pH 7.4
Procedure: as §5, §6, §7, §8

caspase-3 = biological target: T1, caspase-3 (Homo sapiens, UniProt P42574); test: IC50 assay with recombinant caspase-3; type: biochemical; conditions: for IC50: mean±s.d.
T1 construct: purchased Millipore (Billerica, MA)
T1 sequence (P42574 29-175 limits assumed): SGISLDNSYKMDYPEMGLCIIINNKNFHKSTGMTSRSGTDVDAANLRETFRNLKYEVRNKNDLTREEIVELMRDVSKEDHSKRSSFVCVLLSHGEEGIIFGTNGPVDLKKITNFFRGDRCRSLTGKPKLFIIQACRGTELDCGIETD
T1 sequence (P42574 176-277 limits assumed): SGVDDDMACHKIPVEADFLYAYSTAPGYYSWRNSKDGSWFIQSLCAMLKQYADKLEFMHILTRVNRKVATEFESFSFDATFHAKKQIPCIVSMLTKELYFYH
Procedure: (§9) Caspase-3 and 8 – The enzyme was pre-incubated with inhibitor in assay buffer (100 mM HEPES pH 7.4, 0.1% CHAPS, 10% Sucrose) for 10 min at 37 °C.
(§10) To determine the IC50 values of the compounds towards δ-secretase, cathepsin-S, cathepsin-L, caspase-3 and caspase-8, purified recombinant enzyme was incubated in appropriate assay buffers in the presence of increasing concentrations of inhibitors. The formation of fluorescent product was monitored in duplicate reactions and the data were fit to appropriate equations to calculate the IC50 values.

cathepsin-S = biological target: T2, cathepsin-S (Homo sapiens, UniProt P25774); test: IC50 assay with recombinant cathepsin-S; type: biochemical; conditions: for IC50: mean±s.d.
T2 construct: purchased Athens Research and Technology (Athens, GA)
T2 sequence (P25774 115-331, species assumed): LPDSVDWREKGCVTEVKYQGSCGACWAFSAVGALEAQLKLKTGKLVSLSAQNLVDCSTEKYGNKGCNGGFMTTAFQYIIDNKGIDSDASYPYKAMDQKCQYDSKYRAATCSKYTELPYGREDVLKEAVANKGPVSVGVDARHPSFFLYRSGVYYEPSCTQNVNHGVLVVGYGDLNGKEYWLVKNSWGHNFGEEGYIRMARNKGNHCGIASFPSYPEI
Procedure: Cathepsin-S – 100 nM enzyme was pre-incubated with inhibitor in assay buffer (100 mM NaH2PO4 pH 6.5, 100 mM NaCl) for 10 min at 37 °C. The reaction was initiated on addition of 25 μM substrate (Boc-Val-Leu-Lys-AMC (Bachem).
as §10

cathepsin-L = cathepsin-L (Homo sapiens, UniProt P07711); test: IC50 assay with cathepsin-L; type: biochemical; conditions: for IC50: mean±s.d.
Sequence of cathepsin-L (P07711 114-333, species assumed): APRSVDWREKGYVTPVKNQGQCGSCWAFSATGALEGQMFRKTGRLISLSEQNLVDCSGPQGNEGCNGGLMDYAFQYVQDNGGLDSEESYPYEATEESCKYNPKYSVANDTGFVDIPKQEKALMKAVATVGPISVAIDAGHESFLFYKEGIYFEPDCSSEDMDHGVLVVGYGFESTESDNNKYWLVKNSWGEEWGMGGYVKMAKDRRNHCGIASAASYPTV
Procedure: Cathepsin-L – 100 nM enzyme was pre-incubated with inhibitor in assay buffer (100 mM Sodium Acetate pH 5.5, 1 mM EDTA) for 10 min at 37 °C. The reaction was initiated on addition of 25 μM substrate (D-Val-Leu-Lys-AMC (Bachem).
as §10

[4] = biological target: T3, δ-secretase in Pala cells (Homo sapiens, UniProt Q99538); test: δ-secretase inhibition in intact Pala cells; conditions: for IC50 towards δ-secretase in Pala cells: intact cells, 2 h incubation, mean±s.d.
T3 sequence (Q99538 18-433): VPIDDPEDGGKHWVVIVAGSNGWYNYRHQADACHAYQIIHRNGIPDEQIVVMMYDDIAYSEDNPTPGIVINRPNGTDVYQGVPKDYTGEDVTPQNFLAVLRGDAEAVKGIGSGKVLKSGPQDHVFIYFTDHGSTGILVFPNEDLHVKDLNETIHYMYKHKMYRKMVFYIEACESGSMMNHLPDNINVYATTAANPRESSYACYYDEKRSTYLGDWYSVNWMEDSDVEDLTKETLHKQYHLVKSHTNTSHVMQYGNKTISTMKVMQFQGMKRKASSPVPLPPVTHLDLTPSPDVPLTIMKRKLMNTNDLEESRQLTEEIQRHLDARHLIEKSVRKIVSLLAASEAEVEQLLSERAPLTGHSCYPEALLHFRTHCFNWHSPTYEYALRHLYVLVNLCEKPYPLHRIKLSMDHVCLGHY

δ-secretase [5] = biological target: T4, δ-secretase (Homo sapiens, UniProt Q99538); test: DTT and L-cysteine reversibility of δ-secretase inhibition; type: biochemical; conditions: 10 mM DTT or L-cysteine, inhibitor at its IC50
T4 construct: tested with purified active δ-secretase, IC50 values for the top 8 candidates were calculated; purchased Sino Biological (Beijing, China)
T4 sequence (Q99538 18-323 limits assumed): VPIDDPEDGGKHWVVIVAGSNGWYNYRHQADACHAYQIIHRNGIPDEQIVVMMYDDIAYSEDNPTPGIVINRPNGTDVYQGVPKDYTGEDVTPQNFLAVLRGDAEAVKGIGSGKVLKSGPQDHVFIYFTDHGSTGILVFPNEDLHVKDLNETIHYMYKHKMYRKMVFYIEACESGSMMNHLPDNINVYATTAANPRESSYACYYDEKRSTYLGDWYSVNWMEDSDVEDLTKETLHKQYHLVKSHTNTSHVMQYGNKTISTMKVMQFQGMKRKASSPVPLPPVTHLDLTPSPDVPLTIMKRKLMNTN

caspase-8 = biological target: T5, caspase-8 (Homo sapiens, UniProt Q14790); test: IC50 assay with recombinant caspase-8; type: biochemical; conditions: for IC50: mean±s.d.
T5 construct: purchased Millipore (Billerica, MA)
T5 sequence (Q14790 217-374 limits assumed, species assumed): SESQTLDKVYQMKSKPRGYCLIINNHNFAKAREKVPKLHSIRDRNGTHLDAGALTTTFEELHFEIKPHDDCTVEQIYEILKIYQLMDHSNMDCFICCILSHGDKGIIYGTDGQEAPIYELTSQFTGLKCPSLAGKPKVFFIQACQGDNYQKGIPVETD
T5 sequence (Q14790 385-479 limits assumed, species assumed): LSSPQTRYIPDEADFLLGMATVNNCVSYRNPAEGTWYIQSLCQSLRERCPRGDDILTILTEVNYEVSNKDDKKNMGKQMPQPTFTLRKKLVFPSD
Procedure: as §9, §10

δ-secretase [6] = biological target: T4, δ-secretase; test: IC50 assay with purified recombinant δ-secretase (AEP), substrate Cbz-Ala-Ala-Asn-AMC; type: biochemical
Procedure: δ-secretase – 50 nM enzyme was pre-incubated with inhibitor in assay buffer (50 mM Sodium Citrate pH 5.5, 0.1% CHAPS, 60 mM Na2HPO4, 1 mM EDTA) for 10 min at 37 °C. The reaction was initiated on addition of 10 μM Cbz-Ala-Ala-Asn-AMC (Bachem).
as §10

HepG2 cells = test: COMET assay and micronucleus assay in HepG2 cells; type: cell-based, human; conditions: 50 μM, 24 h
Procedure: Human hepatocellular carcinoma HepG2 cells were used to determine the genotoxicity of the compounds. The Comet Assay (single cell gel electrophoresis) was performed according to the protocol provided in the Trevigen Kit (4250-050-K). Briefly, cells were pre-treated for 24 h with vehicle control or 50 μM compounds. Cells were harvested, embedded in low-melt agarose and submerged in Lysis Buffer for 45 min at 4 °C. After incubation in Alkaline Unwinding Solution (300 mM NaOH, 1 mM EDTA) for 20 min, the cells were subjected to electrophoresis in Alkaline Unwinding Solution at 300 mA for 30 min. Slides were washed with 70% ethanol, dried and stained with SYBR Green for 30 min at room temperature. Nicked DNA was measured as percentage of tail DNA. One hundred comets were scored for each sample[39].
HepG2 cells were treated with vehicle or 50 μM compound for 24 h. Cells were washed with PBS, followed byincubation at a ratio of 1:19 in a hypotonic solution (75 mM KCl/0.9% NaCl) for 10 min at 37 °C. Next, the cells were fixed with methanol:glacial acetic acid (3:1) for 15 min at 37 °C, then rinsed and dried. Cells were stained with DAPI (2 μg ml^−1) for 30 min in the dark at room temperature, rinsed with water, dried and mounted with glycerol. One thousand cells per dish were analysed for each experiment; three independent experiments were performed.

CYP1A2 = biological target: T6, CYP1A2 (Homo sapiens, UniProt P05177); test: CYP inhibition screening in microsomes; conditions: pH 7.4
T6 sequence (P05177 1-516): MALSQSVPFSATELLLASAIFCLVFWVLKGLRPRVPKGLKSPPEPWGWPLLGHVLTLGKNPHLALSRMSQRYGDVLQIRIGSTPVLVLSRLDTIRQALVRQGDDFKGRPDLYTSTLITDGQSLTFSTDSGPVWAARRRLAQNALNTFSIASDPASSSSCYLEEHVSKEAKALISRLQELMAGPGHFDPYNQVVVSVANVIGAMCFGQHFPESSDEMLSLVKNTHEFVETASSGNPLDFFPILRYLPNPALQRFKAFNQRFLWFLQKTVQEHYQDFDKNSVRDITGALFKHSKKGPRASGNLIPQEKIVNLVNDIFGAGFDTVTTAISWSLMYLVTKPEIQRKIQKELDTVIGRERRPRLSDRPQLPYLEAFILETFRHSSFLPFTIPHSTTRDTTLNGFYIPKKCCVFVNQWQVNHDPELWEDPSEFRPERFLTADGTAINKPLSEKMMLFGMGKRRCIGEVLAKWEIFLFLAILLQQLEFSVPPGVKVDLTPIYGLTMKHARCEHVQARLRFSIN

CYP2C9 = CYP2C9 (Homo sapiens, UniProt P11712); test: CYP inhibition screening in microsomes; conditions: pH 7.4
Sequence of CYP2C9 (P11712 whole entry): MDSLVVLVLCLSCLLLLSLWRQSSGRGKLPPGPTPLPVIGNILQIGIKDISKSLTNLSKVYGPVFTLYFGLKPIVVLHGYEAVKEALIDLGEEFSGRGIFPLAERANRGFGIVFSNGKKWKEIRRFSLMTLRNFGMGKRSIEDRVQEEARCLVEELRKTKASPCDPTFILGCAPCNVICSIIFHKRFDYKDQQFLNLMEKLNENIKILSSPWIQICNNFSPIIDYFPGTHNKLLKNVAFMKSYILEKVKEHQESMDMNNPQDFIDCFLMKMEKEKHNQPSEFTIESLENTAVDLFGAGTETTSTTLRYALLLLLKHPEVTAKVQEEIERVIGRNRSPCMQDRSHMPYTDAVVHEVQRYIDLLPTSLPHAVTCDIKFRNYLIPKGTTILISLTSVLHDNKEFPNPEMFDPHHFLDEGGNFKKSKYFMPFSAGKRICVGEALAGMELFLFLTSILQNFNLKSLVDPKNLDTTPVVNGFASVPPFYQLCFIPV

Caco-2 monolayer = Caco-2 monolayer permeability screen; conditions: 10 µM, 2 h
Procedure: as §1, §2, §3, §4

CYP3A = test: CYP inhibition screening in microsomes; conditions: human, pH 7.4, probe testosterone
CYP3A4 = CYP3A4 (Homo sapiens, UniProt P08684); test: CYP inhibition screening in microsomes; conditions: pH 7.4, probe midazolam
Sequence of CYP3A4 (P08684 whole entry): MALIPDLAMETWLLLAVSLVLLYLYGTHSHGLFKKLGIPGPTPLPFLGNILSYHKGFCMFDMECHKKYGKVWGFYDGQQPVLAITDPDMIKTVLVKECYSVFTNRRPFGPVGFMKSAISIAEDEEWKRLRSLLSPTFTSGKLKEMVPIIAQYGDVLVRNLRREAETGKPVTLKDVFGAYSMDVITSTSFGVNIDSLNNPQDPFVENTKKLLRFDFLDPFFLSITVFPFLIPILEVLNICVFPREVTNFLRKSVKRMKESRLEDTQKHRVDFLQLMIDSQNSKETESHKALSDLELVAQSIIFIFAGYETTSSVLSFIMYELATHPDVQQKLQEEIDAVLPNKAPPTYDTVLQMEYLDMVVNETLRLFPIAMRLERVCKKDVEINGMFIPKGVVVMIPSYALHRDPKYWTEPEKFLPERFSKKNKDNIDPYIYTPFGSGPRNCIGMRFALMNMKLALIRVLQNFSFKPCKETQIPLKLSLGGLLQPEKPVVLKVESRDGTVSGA

CYP2C19 = CYP2C19 (Homo sapiens, UniProt P33261); test: CYP inhibition screening in microsomes; conditions: pH 7.4
Sequence of CYP2C19 (P33261 whole entry): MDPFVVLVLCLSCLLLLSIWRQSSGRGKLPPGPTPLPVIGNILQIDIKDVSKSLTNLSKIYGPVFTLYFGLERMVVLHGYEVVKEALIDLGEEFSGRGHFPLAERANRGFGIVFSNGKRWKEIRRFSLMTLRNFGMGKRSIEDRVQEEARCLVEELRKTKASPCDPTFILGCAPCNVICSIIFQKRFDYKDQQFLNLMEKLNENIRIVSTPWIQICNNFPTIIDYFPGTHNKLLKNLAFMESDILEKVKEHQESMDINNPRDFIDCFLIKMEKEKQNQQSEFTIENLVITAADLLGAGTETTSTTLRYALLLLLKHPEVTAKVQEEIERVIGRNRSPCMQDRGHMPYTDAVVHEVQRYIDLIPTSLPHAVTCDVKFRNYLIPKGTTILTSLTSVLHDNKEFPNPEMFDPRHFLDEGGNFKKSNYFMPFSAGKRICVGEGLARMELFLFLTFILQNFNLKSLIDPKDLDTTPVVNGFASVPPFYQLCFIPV

CYP2D6 = CYP2D6 (Homo sapiens, UniProt P10635); test: CYP inhibition screening in microsomes; conditions: pH 7.4
Sequence of CYP2D6 (P10635 whole entry): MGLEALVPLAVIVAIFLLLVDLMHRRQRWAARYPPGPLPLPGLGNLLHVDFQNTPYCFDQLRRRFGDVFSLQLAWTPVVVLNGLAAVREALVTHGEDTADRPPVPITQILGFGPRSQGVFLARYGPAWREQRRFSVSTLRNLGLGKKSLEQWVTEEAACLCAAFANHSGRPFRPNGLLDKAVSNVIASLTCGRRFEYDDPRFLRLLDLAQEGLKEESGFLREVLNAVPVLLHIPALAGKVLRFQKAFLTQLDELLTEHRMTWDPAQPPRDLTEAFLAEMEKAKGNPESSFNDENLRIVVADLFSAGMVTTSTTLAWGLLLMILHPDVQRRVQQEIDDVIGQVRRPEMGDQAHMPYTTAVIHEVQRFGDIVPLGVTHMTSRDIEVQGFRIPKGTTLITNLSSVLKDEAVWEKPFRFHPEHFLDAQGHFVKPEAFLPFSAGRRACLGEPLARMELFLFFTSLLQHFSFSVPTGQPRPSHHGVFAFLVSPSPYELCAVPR

[7] = purified recombinant enzyme, mean±s.d., read-out: IC50 AEP (δ-secretase)

Structure (SMILES) | Papp A→B at 2 h, 10 µM [1] | IC50 (caspase-3) | IC50 (cathepsin-S) | IC50 (cathepsin-L) | IC50 [4] | IC50 towards δ-secretase in Pala cells [4] | recovery of δ-secretase activity on addition of reducing agents (δ-secretase [5]) | IC50 (caspase-8) | IC50 (δ-secretase [6]; [7]) | further results
CNC(=C[N+](=O)[O-])NCCSCc1ccc(CN(C)C)o1 [Ranitidine, reference compound] | 0.8 ×10⁻⁶ cm/s |  |  |  |  |  |  |  |  | 
CC(=O)CC(c1ccccc1)c1c(O)c2ccccc2oc1=O (stereo not shown) [Warfarin, reference compound] | 28.5 ×10⁻⁶ cm/s |  |  |  |  |  |  |  |  | Mean Remaining Parent (NADPH-free) [2]: 100%; Mean Remaining Parent (with NADPH) [2]: 91%; Papp B→A at 2 h, 10 µM [1]: 12.6 ×10⁻⁶ cm/s; Mean Remaining Parent (NADPH-free) [3]: 104%; Mean Remaining Parent (with NADPH) [3]: 96%
N#CSc1cnc(N)s1 [compound 10] |  | 44.6 ± 5.01 µM | > 200 µM | 3.79 ± 0.29 µM | 7.86 ± 5.67 µM | slightly larger IC50 values | regained a substantial amount of activity | > 200 µM | 0.71 ± 0.05 µM | 
CN(C)c1ccc(N2C(=O)C=CC2=O)cc1 [compound 22] |  | > 100 µM | > 100 µM | > 100 µM |  |  |  | > 100 µM | 0.21 ± 0.01 µM | genotoxicity (COMET and micronucleus assay) (HepG2 cells): show genotoxicity
CCN(CC)c1ccc(CN2CCc3nc(C)[nH]c(=O)c3C2)c(OC)c1 [compound 64] |  | 15.4 ± 7.04 µM | > 100 µM | > 100 µM | 0.29 ± 0.21 µM |  |  | > 100 µM | 2.37 µM | selectivity for δ-secretase compared to caspase-3 (caspase-3): about 6 fold; selectivity for δ-secretase compared to cathepsin-S (cathepsin-S): over 40 fold; inhibition at 10 min, 3 µM (CYP1A2): 23.7%; inhibition at 10 min, 10 µM (CYP1A2): 22.2%; inhibition at 10 min, 3 µM (CYP2C9): 4.6%; inhibition at 10 min, 10 µM (CYP2C9): 7.9%; A->B Papp (Caco-2 monolayer): < LLOQ; B->A Papp (Caco-2 monolayer): < LLOQ; inhibition at 10 min, 3 µM (CYP3A): 1.5%; inhibition at 10 min, 10 µM (CYP3A): -0.1%; selectivity for δ-secretase compared to cathepsin-L (cathepsin-L): over 40 fold; inhibition at 10 min, 3 µM (CYP3A4): 0.6%; inhibition at 10 min, 10 µM (CYP3A4): 10.1%; selectivity for δ-secretase compared to caspase-8 (caspase-8): over 40 fold; inhibition at 10 min, 3 µM (CYP2C19): 31.6%; inhibition at 10 min, 10 µM (CYP2C19): 20.4%; inhibition at 10 min, 3 µM (CYP2D6): 34.6%; inhibition at 10 min, 10 µM (CYP2D6): 58.3%
Sc1nnc(Nc2ccccc2)s1 [compound BB1] |  | > 200 µM | > 200 µM | 5.66 ± 0.36 µM | 1.57 ± 0.14 µM | slightly larger IC50 values | regained a substantial amount of activity | 28.7 ± 11.2 µM | 0.13 ± 0.09 µM | ligand efficiency (δ-secretase [6]): 0.75; IC50 (δ-secretase [6]; purified active δ-secretase, read-out: IC50 / potency toward δ-secretase): ~0.13 µM
